This is an account of results in paper PMC11981937 (Nature, 2025).

Several values for one entry are separate records, joined by “and”; a condition that tells them apart may be missing. Equal values may be shown once. Read-outs that look alike come from different tables or passages of the source.

Assay [1] is classed as in vivo, Syrian golden hamster. The note with it: Molnupiravir 200 mpk BID, pre-exposure.
A further assay concerns SARS-CoV-2 B1. Type of assay: in vivo, Syrian golden hamster. The note with it: pre-exposure.
Assay [2] in a line: Post-exposure Syrian golden hamster model, body weight. As to conditions: in vivo.
A further assay concerns SARS-CoV-2. Type of assay: in vivo, Syrian golden hamster. The note with it: for Infectious virus in the lung (TCID50), Copy number, individual animal / Infectious virus in the lung (TCID50), Log 10, individual animal / Viral load (viral RNA) in the lung, Copy number, individual animal / Viral load (viral RNA) in the lung, Log 10, individual animal / Infectious virus in the lung (TCID50), average Log 10 / Infectious virus in the lung (TCID50), median Log 10 / Viral load (viral RNA) in the lung, average Log 10 / Viral load (viral RNA) in the lung, median Log 10: 250mg/kg/ BID; for Infectious virus in the lung (TCID50), average Log 10 / Infectious virus in the lung (TCID50), median Log 10 / Viral load (viral RNA) in the lung, average Log 10 / Viral load (viral RNA) in the lung, median Log 10: n=5.

Assay [3] relates to SARS-CoV-2 (USA-WA1/2020). More on the design: species or system Syrian golden hamster. The note with it: hamster, in vivo.

In the case of `CC(C)C(=O)OC[C@H]1O[C@@H](n2ccc(NO)nc2=O)[C@H](O)[C@@H]1O` [molnupiravir, reference compound], the “% body weight change compared to day 0, Avg” value in assay [1] (day 4 vs day 0, group average) came to 3.04%. In assay [1] (day 4 vs day 0, individual animals), the “% body weight change compared to day 0” value was 2.6% and 2.4% and 5% and 3% and 2.2%. Besides, in the assay on SARS-CoV-2 B1 (200 mg/kg/ BID, n=5), the “Histopathology score, average” value was determined as 2.10; the “Histopathology score, median” value is recorded as 1.50; the “Infectious virus in the lung (TCID50/mg), average Log 10” value came to 4.54 Log 10; the “Infectious virus in the lung (TCID50/mg), median Log 10” value is 4.21 Log 10. For the same compound, in the assay with SARS-CoV-2 B1 (200 mg/kg/ BID, n=5), the “Viral load (viral RNA) in the lung, average Log 10” value (“Viral load … average Log 10” below) is given as 9.78 Log 10 and the “Viral load (viral RNA) in the lung, median Log 10” value (“Viral load … median Log 10” for short) is 9.74 Log 10. Besides, in the assay on SARS-CoV-2 B1 (200 mg/kg/ BID, 200 mg/kg), the “Histopathology score, individual animal” value was 1.5 and 3; the “Infectious virus in the lung (TCID50/mg), Log 10, individual animal” value is 4.01 Log 10 and 3.36 Log 10 and 6.13 Log 10 and 4.21 Log 10 and 4.99 Log 10; the “Infectious virus in the lung, individual animal” value was 10248.12 TCID50/mg and 2288.60 TCID50/mg and 1353038.68 TCID50/mg and 16040.54 TCID50/mg and 98821.18 TCID50/mg; the “Viral load (viral RNA) in the lung, Copy number, individual animal” value (“Viral load … Copy number, individual animal” for short) is 5.44E+09 and 8.11E+09 and 8.53E+09 and 4.38E+09 and 4.90E+09. Further, in the assay on SARS-CoV-2 B1 (200 mg/kg/ BID, 200 mg/kg), the “Viral load (viral RNA) in the lung, Log 10, individual animal” value (from here on “Viral load … Log 10, individual animal”) is 9.74 Log 10 and 9.91 Log 10 and 9.93 Log 10 and 9.64 Log 10 and 9.69 Log 10. Further, the “decline in antiviral parameters (in words)” value in the assay on SARS-CoV-2 B1 (300 mg per kg BID, reference) is “not significant”.
`CC(C)(C)[C@H](NC(=O)C(F)(F)F)C(=O)N1C[C@H]2[C@@H]([C@H]1C(=O)N[C@H](C#N)C[C@@H]1CCNC1=O)C2(C)C` [nirmatrelvir, reference compound]: the “Average body weight change (%) on day 4 compared to day 0” value in assay [2] was -2.756% and -3.747% and -5.087%. Moreover, in the assay with SARS-CoV-2 (10 h post exposure), the “Infectious virus in the lung (TCID50), Copy number, individual animal” value was 2.74E+02 and 1.40E+02 and 3.86E+02; the “Infectious virus in the lung (TCID50), Log 10, individual animal” value was 2.44 Log 10 and 3.68 Log 10 and 2.14 Log 10 and 3.67 Log 10 and 2.59 Log 10; the “Viral load … Copy number, individual animal” value was 3.26E+07 and 1.08E+07 and 4.11E+07 and 4.76E+07 and 5.79E+06; the “Viral load … Log 10, individual animal” value is 7.51 Log 10 and 7.03 Log 10 and 7.61 Log 10 and 7.68 Log 10 and 6.76 Log 10. Moreover, in the assay on SARS-CoV-2 (10 h post exposure), the “Infectious virus in the lung (TCID50), average Log 10” value is recorded as 2.90 Log 10; the “Infectious virus in the lung (TCID50), median Log 10” value was found to be 2.59 Log 10; the “Viral load … average Log 10” value is listed as 7.32 Log 10; the “Viral load … median Log 10” value came out at 7.51 Log 10. Also, in the assay with SARS-CoV-2 (24 h post exposure), the “Infectious virus in the lung (TCID50), Copy number, individual animal” value was 3.74E+03 and 5.43E+02 and 1.15E+04 and 7.40E+03; the “Infectious virus in the lung (TCID50), Log 10, individual animal” value is 3.57 Log 10 and 2.74 Log 10 and 4.06 Log 10 and 3.67 Log 10 and 3.87 Log 10; the “Viral load … Copy number, individual animal” value was 4.02E+07 and 9.08E+07 and 1.10E+07 and 3.49E+07 and 2.71E+07; the “Viral load … Log 10, individual animal” value is 7.60 Log 10 and 7.96 Log 10 and 7.04 Log 10 and 7.54 Log 10 and 7.43 Log 10. In addition, in the assay with SARS-CoV-2 (24 h post exposure), the “Infectious virus in the lung (TCID50), average Log 10” value worked out at 3.58 Log 10; the “Infectious virus in the lung (TCID50), median Log 10” value was determined as 3.67 Log 10; the “Viral load … average Log 10” value amounted to 7.52 Log 10; the “Viral load … median Log 10” value stood at 7.54 Log 10. Moreover, in the assay with SARS-CoV-2 (48 h post exposure), the “Infectious virus in the lung (TCID50), Copy number, individual animal” value was 5.70E+02 and 4.90E+02 and 1.00E+02 and 6.63E+02 and 1.50E+03; the “Infectious virus in the lung (TCID50), Log 10, individual animal” value is 2.76 Log 10 and 2.69 Log 10 and 2.00 Log 10 and 2.82 Log 10 and 3.17 Log 10; the “Viral load … Copy number, individual animal” value was 1.41E+08 and 2.05E+07 and 3.56E+08 and 4.63E+07 and 6.23E+07; the “Viral load … Log 10, individual animal” value is 8.15 Log 10 and 7.31 Log 10 and 8.55 Log 10 and 7.67 Log 10 and 7.79 Log 10. For the same compound, in the assay on SARS-CoV-2 (48 h post exposure), the “Infectious virus in the lung (TCID50), average Log 10” value is given as 2.69 Log 10; the “Infectious virus in the lung (TCID50), median Log 10” value was 2.76 Log 10; the “Viral load … average Log 10” value was found to be 7.89 Log 10; the “Viral load … median Log 10” value came out at 7.79 Log 10. For the same compound, the “reduction of lung viral RNA load and infectious virus (in words)” value in the assay with SARS-CoV-2 (post-exposure, 250 mg per kg BID) was “not significant”. For the same compound, in assay [3], the “Infectious SARS-CoV2 virus in the lung, Avg” value was 4651963 PFU/g Lung; the “Infectious SARS-CoV2 virus in the lung, Log10, Avg” value is recorded as 5.697 Log10 PFU/g Lung; the “SARS-CoV2 viral load (viral RNA) in the lung, Avg” value came to 46452968 RNA copies/mL; the “SARS-CoV2 viral load (viral RNA) in the lung, Log10, Avg” value came to 6.876 Log10 RNA copies/mL.
